# Source: the supplement of paper PMC6045584
# ± gives the standard deviation of the averaged measurements.
# How the values were obtained:
# SORAFENIB = compound: CNC(=O)c1cc(Oc2ccc(NC(=O)Nc3ccc(Cl)c(C(F)(F)F)c3)cc2)ccn1 [SORAFENIB]; assay: surviving fraction relative to DMSO-only wells; higher = less growth inhibition; conditions: exposure time: 5 days
# How it was run: (§1)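 Log-phase tumour cell lines, 250–500 cells per well in 384-well plates, received inhibitors at 0.5, 1, 5, 10, 50, 100, 500 and 1000 nM continuously for five days, starting 24 hours after seeding. Viability was quantified with CellTiter-Glo luminescence and normalised to the median of DMSO-only wells to give surviving fraction. Three screens were run per line, and a line stayed in only with replicate Pearson r >0.7 and median Z' >0.3.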
# TEMOZOLOMIDE = compound: Cn1nnc2c(C(N)=O)ncn2c1=O [TEMOZOLOMIDE]; assay: as above; conditions: exposure time: 5 days
# How it was run: as §1
Test System,surviving fraction (SORAFENIB; 0.5 nM),surviving fraction (SORAFENIB; 1 nM),surviving fraction (SORAFENIB; 5 nM),surviving fraction (SORAFENIB; 10 nM),surviving fraction (SORAFENIB; 50 nM),surviving fraction (SORAFENIB; 100 nM),surviving fraction (SORAFENIB; 500 nM),surviving fraction (SORAFENIB; 1000 nM),surviving fraction (TEMOZOLOMIDE; 0.5 nM),surviving fraction (TEMOZOLOMIDE; 1 nM),surviving fraction (TEMOZOLOMIDE; 5 nM),surviving fraction (TEMOZOLOMIDE; 10 nM),surviving fraction (TEMOZOLOMIDE; 50 nM),surviving fraction (TEMOZOLOMIDE; 100 nM),surviving fraction (TEMOZOLOMIDE; 500 nM),surviving fraction (TEMOZOLOMIDE; 1000 nM)
ASKA SYNOVIAL,1.12 ± 0.019,1.07 ± 0.063,1.18 ± 0.024,1.12 ± 0.028,1.15 ± 0.031,1.15 ± 0.014,1.01 ± 0.023,0.954 ± 0.045,1.03 ± 0.078,1.03 ± 0.066,1.12 ± 0.044,1.22 ± 0.12,1.14 ± 0.082,1.24 ± 0.02,1.15 ± 0.055,1.2 ± 0.058
HSSYII SYNOVIAL,1 ± 0.059,0.975 ± 0.026,0.977 ± 0.038,0.942 ± 0.035,0.947 ± 0.037,1.01 ± 0.024,0.855 ± 0.035,0.779 ± 0.038,0.958 ± 0.033,0.957 ± 0.061,0.965 ± 0.039,0.998 ± 0.051,1.02 ± 0.024,0.9798 ± 0.0033,0.981 ± 0.035,0.956 ± 0.04
RDES SOFT TISSUE,1.24 ± 0.085,1.12 ± 0.098,1.18 ± 0.1,0.918 ± 0.1,1.15 ± 0.058,1.24 ± 0.066,1.18 ± 0.13,1.09 ± 0.1,1.11 ± 0.033,1.2 ± 0.06,1.14 ± 0.088,1.02 ± 0.12,1.15 ± 0.13,1.3 ± 0.14,1.27 ± 0.15,1.34 ± 0.17
JURKAT HAEMATOPOIETIC AND LYMPHOID TISSUE,1.106 ± 0.0035,1.1 ± 0.026,1.11 ± 0.039,1.11 ± 0.037,1.08 ± 0.023,1.06 ± 0.029,–,0.863 ± 0.012,1.06 ± 0.019,1.08 ± 0.024,1.05 ± 0.032,1.05 ± 0.02,1.04 ± 0.029,1.01 ± 0.029,1.02 ± 0.02,1.04 ± 0.013
JIMT1 BREAST,–,0.986 ± 0.028,1.02 ± 0.022,0.97 ± 0.014,–,1.05 ± 0.046,–,0.986 ± 0.071,1 ± 0.022,1.03 ± 0.032,1.021 ± 0.0081,1.07 ± 0.07,1 ± 0.022,1.04 ± 0.038,1.01 ± 0.025,1.06 ± 0.065
22RV1 PROSTATE,0.995 ± 0.029,–,0.974 ± 0.014,0.955 ± 0.025,1.09 ± 0.034,1.09 ± 0.064,1.11 ± 0.043,–,0.993 ± 0.017,1.09 ± 0.05,1.03 ± 0.029,1.08 ± 0.015,1.04 ± 0.057,1.13 ± 0.096,1.11 ± 0.048,1.09 ± 0.069
NY BONE,1.01 ± 0.019,0.975 ± 0.033,1.04 ± 0.035,1.01 ± 0.027,1.08 ± 0.036,1.07 ± 0.044,1.02 ± 0.013,1.034 ± 0.0083,1.01 ± 0.033,1.05 ± 0.018,1.01 ± 0.066,1.09 ± 0.035,1.063 ± 0.004,1.09 ± 0.029,1.014 ± 0.0032,1.02 ± 0.013
CHLA90 AUTONOMIC GANGLIA,0.992 ± 0.05,1.04 ± 0.039,–,0.996 ± 0.037,1.13 ± 0.037,1.27 ± 0.062,1.38 ± 0.1,1.5 ± 0.12,0.928 ± 0.039,0.975 ± 0.047,0.941 ± 0.053,0.96 ± 0.023,0.963 ± 0.068,1.03 ± 0.055,1.02 ± 0.087,1.03 ± 0.098
143B BONE,–,1.02 ± 0.018,–,1.042 ± 0.0078,1.03 ± 0.06,1.02 ± 0.042,–,0.962 ± 0.012,0.914 ± 0.096,1.0035 ± 0.00071,0.961 ± 0.047,1 ± 0.033,1.01 ± 0.013,1.02 ± 0.023,0.965 ± 0.03,1.04 ± 0.019
T47D BREAST,1.083 ± 0.01,1.02 ± 0.028,1.07 ± 0.053,1.02 ± 0.046,1.14 ± 0.029,1.13 ± 0.018,1.149 ± 0.0045,1.12 ± 0.039,0.982 ± 0.011,1.057 ± 0.0064,1.04 ± 0.034,1.04 ± 0.055,1.06 ± 0.053,1.1 ± 0.018,1.08 ± 0.032,1.09 ± 0.025
SG28 HEADNECK,1.17 ± 0.13,–,1.18 ± 0.1,1.22 ± 0.18,1.21 ± 0.066,1.27 ± 0.1,1.44 ± 0.19,1.32 ± 0.14,1.03 ± 0.044,1.18 ± 0.034,1.04 ± 0.013,1.1 ± 0.021,1.1 ± 0.087,1.05 ± 0.013,1.09 ± 0.14,1.09 ± 0.048
SUM159 BREAST,0.909 ± 0.23,0.956 ± 0.18,–,0.936 ± 0.18,0.997 ± 0.15,–,0.909 ± 0.28,0.071 ± 0.043,1.01 ± 0.057,1.06 ± 0.035,1.039 ± 0.0092,1.07 ± 0.024,1.02 ± 0.021,1.05 ± 0.021,1.04 ± 0.029,1.06 ± 0.0095
MDAMB134 BREAST,1.04 ± 0.067,1.26 ± 0.12,1.06 ± 0.033,1.02 ± 0.031,1.06 ± 0.053,1.14 ± 0.091,1.21 ± 0.18,–,0.928 ± 0.0085,0.981 ± 0.033,0.926 ± 0.14,0.902 ± 0.15,0.975 ± 0.23,1.05 ± 0.17,0.953 ± 0.2,1.11 ± 0.08
SG27 HEADNECK,1.04 ± 0.056,1.01 ± 0.059,1.18 ± 0.041,1.13 ± 0.074,1.03 ± 0.04,1.22 ± 0.1,1.27 ± 0.045,1.3 ± 0.051,1.13 ± 0.058,1.1 ± 0.11,1.02 ± 0.054,1.09 ± 0.019,1.04 ± 0.061,1.16 ± 0.14,1.22 ± 0.048,1.21 ± 0.15
93VU HEADNECK,0.961 ± 0.081,0.987 ± 0.091,1.12 ± 0.051,1.19 ± 0.11,1.22 ± 0.1,1.17 ± 0.07,–,–,1.02 ± 0.1,1.04 ± 0.015,1.09 ± 0.057,1.03 ± 0.14,1.11 ± 0.022,1.17 ± 0.12,1 ± 0.11,1.02 ± 0.081
HCC202 BREAST,1.23 ± 0.35,–,1.11 ± 0.18,1.02 ± 0.031,0.987 ± 0.055,–,0.897 ± 0.13,0.685 ± 0.15,1.08 ± 0.35,1 ± 0.13,1.07 ± 0.32,0.9 ± 0.071,1.01 ± 0.17,1.29 ± 0.14,0.975 ± 0.035,1.254 ± 0.011
S68 BREAST,–,0.963 ± 0.22,1.06 ± 0.083,1.13 ± 0.18,1.29 ± 0.099,1.12 ± 0.27,1.02 ± 0.079,0.895 ± 0.32,0.996 ± 0.22,1.07 ± 0.034,1.08 ± 0.18,1.06 ± 0.12,1.04 ± 0.044,1.09 ± 0.25,1.05 ± 0.078,1.29 ± 0.24
PCI30 HEADNECK,1.04 ± 0.038,–,1.02 ± 0.045,1.04 ± 0.06,1.06 ± 0.098,1.11 ± 0.096,1.11 ± 0.059,1.12 ± 0.013,0.957 ± 0.026,0.976 ± 0.067,0.988 ± 0.023,1.04 ± 0.043,1.07 ± 0.047,1.05 ± 0.041,0.937 ± 0.013,0.939 ± 0.03
MCF7 BREAST,0.866 ± 0.025,0.86 ± 0.068,0.904 ± 0.021,0.851 ± 0.022,0.928 ± 0.047,0.939 ± 0.034,0.995 ± 0.074,0.873 ± 0.025,0.889 ± 0.03,0.932 ± 0.023,0.934 ± 0.027,0.907 ± 0.054,0.922 ± 0.031,0.941 ± 0.037,0.958 ± 0.058,0.987 ± 0.034
HOSMNG BONE,0.994 ± 0.086,0.975 ± 0.14,0.943 ± 0.092,1 ± 0.14,1.06 ± 0.11,1.05 ± 0.16,1.1 ± 0.049,1.06 ± 0.15,0.835 ± 0.15,0.927 ± 0.11,0.795 ± 0.051,0.89 ± 0.03,0.938 ± 0.12,0.936 ± 0.16,0.995 ± 0.12,0.957 ± 0.074
U2OS BONE,1.01 ± 0.019,1.03 ± 0.027,1.06 ± 0.05,1.05 ± 0.029,1.08 ± 0.035,–,1.08 ± 0.016,1 ± 0.067,0.988 ± 0.017,0.988 ± 0.034,1.04 ± 0.022,1.02 ± 0.045,1.06 ± 0.029,1.06 ± 0.023,1.02 ± 0.028,1.01 ± 0.023
CADOES1 SOFT TISSUE,1.02 ± 0.062,–,0.862 ± 0.035,–,0.972 ± 0.15,0.947 ± 0.1,–,0.603 ± 0.19,0.965 ± 0.14,0.979 ± 0.071,0.907 ± 0.07,0.877 ± 0.032,0.956 ± 0.068,0.937 ± 0.04,0.968 ± 0.096,0.969 ± 0.12
SG32 HEADNECK,1.2 ± 0.15,1.47 ± 0.68,1.33 ± 0.044,1.42 ± 0.35,1.76 ± 0.68,1.62 ± 0.26,1.53 ± 0.35,1.56 ± 0.36,1.14 ± 0.019,1.44 ± 0.39,1.19 ± 0.12,1.37 ± 0.22,1.26 ± 0.071,1.13 ± 0.097,1.2 ± 0.18,1.67 ± 0.62
HT1080 SOFT TISSUE,1.04 ± 0.057,1.05 ± 0.036,1.04 ± 0.035,1.02 ± 0.014,1.023 ± 0.005,1.01 ± 0.028,1.05 ± 0.09,1.01 ± 0.031,1.04 ± 0.039,1.03 ± 0.014,1.03 ± 0.026,1.03 ± 0.022,1.03 ± 0.026,1.04 ± 0.014,1.04 ± 0.017,1.03 ± 0.023
CME SYNOVIAL,1.23 ± 0.11,1.2 ± 0.07,1.28 ± 0.072,1.38 ± 0.075,1.28 ± 0.058,1.4 ± 0.12,1.27 ± 0.073,1.15 ± 0.025,1.31 ± 0.12,1.21 ± 0.12,1.24 ± 0.033,1.33 ± 0.18,1.34 ± 0.12,1.46 ± 0.064,1.34 ± 0.027,1.39 ± 0.065
HCC1954 BREAST,1.11 ± 0.15,–,1.02 ± 0.077,0.93 ± 0.27,1.22 ± 0.11,1.29 ± 0.039,1.3 ± 0.1,1.33 ± 0.14,1.11 ± 0.19,0.956 ± 0.25,1.198 ± 0.0064,1.2 ± 0.082,1.16 ± 0.12,0.989 ± 0.13,1.04 ± 0.24,0.976 ± 0.023
MDAMB361 BREAST,0.813 ± 0.078,0.862 ± 0.089,0.904 ± 0.029,–,0.909 ± 0.034,0.837 ± 0.03,0.796 ± 0.049,0.84 ± 0.098,0.914 ± 0.14,0.93 ± 0.017,0.917 ± 0.15,0.889 ± 0.1,0.983 ± 0.16,0.925 ± 0.037,0.945 ± 0.1,0.908 ± 0.042
